{"source": "patent US20180021417A1", "about": "“ADJUVANT COMPOSITIONS COMPRISING A NON-IONIC ISOTONICITY AGENT” (GLAXOSMITHKLINE BIOLOGICALS, SA, priority 2009, published 2018)", "tested_on": "chicken Red Blood cells (RBC)", "assay": "QS21 lytic activity, haemolysis assay (limit test)", "type": "cell-based", "settings": "example QS21 curve, 150 mM sodium chloride buffer; OD 0.12", "experimental": "QS21 is known to lyse red blood cells (RBC).\nQS21 lytic activity was measured by a haemolysis assay using chicken Red Blood cells (RBC). RBC were centrifuged at 550 g at 4° C. Supernatant was discarded. The pellet was carefully resuspended in PBS buffer to reach the initial volume and the same operation was repeated until supernatant was no longer red (generally 3 times). The pellet was stored at 4° C. for 3 to 4 days maximum if not used directly (and washed again the day it is used) or was diluted around 10 times in buffer if used the same day.\nA QS21 dose range curve was prepared in ASA buffer (in salt or in sorbitol buffer following the ASA sample tested) extemporaneously and the adjuvant samples (containing a 50 μg or 90 μg equivalent of QS21 meaning the equivalent of 500 μl or 900 μl ASA) were prepared. Final volume was adjusted to 900 μl in standards and samples with adequate buffer (containing or not sorbitol as a function of the buffer of the sample tested). Due to its opalescence, ASA interferes in optical density (OD). […] Optical density at 540 nm was measured after centrifugation. […]\n1. Limit of detection (LOD) was defined as the lowest concentration of QS21 leading to an OD: • Higher than the base level (OD>0.1) • Around three times higher than OD's buffer (the “o μg” QS21) • In the ascendant part of the curve • Determined for each test. […]", "data": [{"substance": "QS21", "values": [{"measurement": "Limit of Detection (lowest QS21 amount giving lytic OD)", "result": 0.9, "unit": "µg"}]}]}
